Experimental data reported in patent US20130275051A1, “COMPUTING DEVICE AND METHOD FOR DETECTING CELL DEATH IN A BIOLOGICAL SAMPLE” (priority 2011, published 2013).

Tested on: human bladder carcinoma (HT-1376) tumors
Assay: OCT decorrelation time in tumors grown in dorsal skin-fold window chamber model
Format: in vivo
Details: mice, single tail vein injection 100 mg/m2, 0, 24 and 48 hours, FIG. 11; cell death confirmed by histological data
From the text: An in-vivo tumor model used in the successful experiment consisted of human bladder carcinoma (HT-1376) tumors grown within a dorsal skin-fold window chamber model in a plurality of mice. […] A custom built 36 kHz swept source OCT system (similar to system 100) was used for in-vivo acquisition of data. For each imaging time point, two-dimensional frames of OCT data were acquired at 200 frames per second over approximately 8 seconds. Each frame contained 180 axial scans and covered a lateral distance of 3 mm. Data sets were acquired from imaging planes within the window chamber of each mouse. Method 200 was applied to each pixel location of an ROI within tumors at 0 hours, 24 hours and 48 hours to obtain an average decorrelation time at each of 0 hours, 24 hours and 48 hours.

## N.N.[Cl][Pt][Cl] [cisplatin]
  average decorrelation time within tumor ROI: increase in average decorrelation time
